# Measured values as given in patent US9301923B2, “Lipids, lipid compositions, and methods of using them” (NOVARTIS AG, priority 2009, dated 2016).
# Like-named read-outs stand apart in the source and are kept apart here.
# Key:
# [1] = pKa of the lipid by TNS fluorescence; type: physicochemical
# Method in brief: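 Lipid dissolved in ethanol (2 mM stock) and measured with TNS across eight buffers of differing pH, in water at standard temperature and pressure. Normalized fluorescence intensity plotted against pH and points joined by a smooth line to derive pKa, precise to about 0.2 units.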
# Factor VII = Factor VII activity assay, in vivo liver delivery of FVII siRNA LNP; design: species or system mouse; details: for FVII inhib %: ~48 h; for in vivo Factor VII inhibition: formulation containing the cationic lipid, RNAi construct specific to Factor VII, liver
# Method in brief: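 Female CD-1 mice (~25 g) given a single i.v. tail-vein dose of FVII siRNA in LNPs (cationic, stealth, neutral lipids), dosed as mg siRNA/kg. Plasma collected ~48 h post-injection; FVII activity read against a standard curve from pooled vehicle-control plasma.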
# [2] = Particle size and PDI by dynamic light scattering (Malvern Zetasizer); type: physicochemical
# Method in brief: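 Nanoparticles diluted in PBS to a count rate of about 200-400 kcts and measured by dynamic light scattering; size given as intensity-weighted average diameter, with polydispersity index from the same measurement.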
# [3] = dose 1 mg/kg siRNA i.v., lipid/no neutral lipid/CHOL/GM-020 NOF 60/0/36/4, N/P 3
# [4] = lipid/no neutral lipid/CHOL/GM-020 NOF 60/0/36/4, N/P 3
# [5] = dose 3 mg/kg siRNA i.v., lipid/no neutral lipid/CHOL/AVANTI 880150P 50/0/46/4, N/P 3.43
# [6] = lipid/no neutral lipid/CHOL/AVANTI 880150P 50/0/46/4, N/P 3.43
# [7] = dose 3 mg/kg siRNA i.v., lipid/DSPC/CHOL/AVANTI 880150P 50/28/18/4, N/P 3.43
# [8] = lipid/DSPC/CHOL/AVANTI 880150P 50/28/18/4, N/P 3.43
SMILES,pKa ([1]; pKa),FVII inhib % (Factor VII; [3]) [%],"Final size (nm) [2, 4] [nm]","PDI [2, 4]",FVII inhib % (Factor VII; [5]) [%],in vivo Factor VII inhibition (Factor VII) [%],"Final size (nm) [2, 6] [nm]","PDI [2, 6]",pKa [1],FVII inhib % (Factor VII; [7]) [%],"Final size (nm) [2, 8] [nm]","PDI [2, 8]","FVII inhib % (Factor VII; dose 1 mg/kg siRNA i.v., lipid/no neutral lipid/CHOL/AVANTI 880150P 50/0/46/4, N/P 3.43) [%]"
CCCCCCCC/C=C\CCCCCCCCOCC(CN1CCC(OC)C1)OCCO[C@H]1CC[C@@]2(C)C(=CC[C@H]3[C@@H]4CC[C@H]([C@H](C)CCCC(C)C)[C@@]4(C)CC[C@@H]32)C1 (stereo partly shown) [E0062],6.45,64.8,145.1,0.125,–,–,–,–,–,–,–,–,–
CCCCCCCC/C=C\CCCCCCCCOCC(CN1CCCCC1)OCCOCCO[C@H]1CC[C@@]2(C)C(=CC[C@H]3[C@@H]4CC[C@H]([C@H](C)CCCC(C)C)[C@@]4(C)CC[C@@H]32)C1 (stereo partly shown) [E0063],6.48,33.3,155.5,0.09,–,–,–,–,–,–,–,–,–
CCCCCCCC/C=C\CCCCCCCCOCC(CN1CCC(OC)C1)OCCOCCO[C@H]1CC[C@@]2(C)C(=CC[C@H]3[C@@H]4CC[C@H]([C@H](C)CCCC(C)C)[C@@]4(C)CC[C@@H]32)C1 (stereo partly shown) [E0064],6.83,37.2,169.2,0.144,–,–,–,–,–,–,–,–,–
CCCCCCCC/C=C\CCCCCCCCOCC(CN1CCCC1C)OCCOCCO[C@H]1CC[C@@]2(C)C(=CC[C@H]3[C@@H]4CC[C@H]([C@H](C)CCCC(C)C)[C@@]4(C)CC[C@@H]32)C1 (stereo partly shown) [E0065],6.8,41.1,153.01,0.148,–,–,–,–,–,–,–,–,–
CCCCCCCC/C=C\CCCCCCCCOCC(CN1CCCC1C)OCCO[C@H]1CC[C@@]2(C)C(=CC[C@H]3[C@@H]4CC[C@H]([C@H](C)CCCC(C)C)[C@@]4(C)CC[C@@H]32)C1 (stereo partly shown) [E0066],6.5,44.2,140.7,0.071,–,–,–,–,–,–,–,–,–
CCCCC/C=C\C/C=C\CCCCCCCCCCOCC(CN1CCOCC1)OCCO[C@H]1CC[C@@]2(C)C(=CC[C@H]3[C@@H]4CC[C@H]([C@H](C)CCCC(C)C)[C@@]4(C)CC[C@@H]32)C1 (stereo partly shown) [E0068],4.82,28.6,174.0,0.041,–,–,–,–,–,–,–,–,–
CCCCC/C=C\C/C=C\CCCCCCCCCCOCC(CN1CCCCC1)OCCO[C@H]1CC[C@@]2(C)C(=CC[C@H]3[C@@H]4CC[C@H]([C@H](C)CCCC(C)C)[C@@]4(C)CC[C@@H]32)C1 (stereo partly shown) [E0069],6.07,29,113.4,0.199,–,–,–,–,–,–,–,–,–
CCCCC/C=C\C/C=C\CCCCCCCCCCOCC(CN1CCCC1C)OCCO[C@H]1CC[C@@]2(C)C(=CC[C@H]3[C@@H]4CC[C@H]([C@H](C)CCCC(C)C)[C@@]4(C)CC[C@@H]32)C1 (stereo partly shown) [E0070],6.4,50.3,150.9,0.045,–,–,–,–,–,–,–,–,–
CCCCC/C=C\C/C=C\CCCCCCCCCCOCC(CN1CCCCC1)OCCOCCO[C@H]1CC[C@@]2(C)C(=CC[C@H]3[C@@H]4CC[C@H]([C@H](C)CCCC(C)C)[C@@]4(C)CC[C@@H]32)C1 (stereo partly shown) [E0071],6.47,30.8,188.2,0.151,–,–,–,–,–,–,–,–,–
CCCCCCCC/C=C\CCCCCCCCOCC(CN1CCCCC1)OCCCOCCCO[C@H]1CC[C@@]2(C)C(=CC[C@H]3[C@@H]4CC[C@H]([C@H](C)CCCC(C)C)[C@@]4(C)CC[C@@H]32)C1 (stereo partly shown) [E0078],5.72,51.9,122.6,0.098,–,–,–,–,–,–,–,–,–
CCCCC/C=C\C/C=C\CCCCCCCCOCC(CN1CCCCC1)OCCOCCOCCOCCO[C@H]1CC[C@@]2(C)C(=CC[C@H]3[C@@H]4CC[C@H]([C@H](C)CCCC(C)C)[C@@]4(C)CC[C@@H]32)C1 (stereo partly shown) [E0079],6.79,33.5,106.2,0.052,–,–,–,–,–,–,–,–,–
CCCCC/C=C\C/C=C\CCCCCCCCOCC(CN1CCCC1C)OCCOCCOCCO[C@H]1CC[C@@]2(C)C(=CC[C@H]3[C@@H]4CC[C@H]([C@H](C)CCCC(C)C)[C@@]4(C)CC[C@@H]32)C1 (stereo partly shown) [E0082],6.81,49.7,105.1,0.303,–,–,–,–,–,–,–,–,–
CCCCC/C=C\C/C=C\CCCCCCCCOCC(CN1CCCC1C)OCCOCCO[C@H]1CC[C@@]2(C)C(=CC[C@H]3[C@@H]4CC[C@H]([C@H](C)CCCC(C)C)[C@@]4(C)CC[C@@H]32)C1 (stereo partly shown) [E0083],6.79,55.6,113.4,0.199,–,–,–,–,–,–,–,–,–
CCCCC/C=C\C/C=C\CCCCCCCCOCC(CN1CCCC1C)OCCOCCOCCOCCO[C@H]1CC[C@@]2(C)C(=CC[C@H]3[C@@H]4CC[C@H]([C@H](C)CCCC(C)C)[C@@]4(C)CC[C@@H]32)C1 (stereo partly shown) [E0084],7.27,60.7,112.1,0.1,–,–,–,–,–,–,–,–,–
CCCCC/C=C\C/C=C\CCCCCCCCOCC(CN1CCC(OC)C1)OCCO[C@H]1CC[C@@]2(C)C(=CC[C@H]3[C@@H]4CC[C@H]([C@H](C)CCCC(C)C)[C@@]4(C)CC[C@@H]32)C1 (stereo partly shown) [E0087],6.38,69,119.2,0.148,–,–,–,–,–,–,–,–,–
CCCCCCCC/C=C\CCCCCCCCOCC(CN1CCCC1C)OCCCOCCCO[C@H]1CC[C@@]2(C)C(=CC[C@H]3[C@@H]4CC[C@H]([C@H](C)CCCC(C)C)[C@@]4(C)CC[C@@H]32)C1 (stereo partly shown) [E0094],5.91,36.3,115.5,0.076,–,–,–,–,–,–,–,–,–
CCCCC/C=C\C/C=C\CCCCCCCCOCOCC(CN1CCCCC1)OCCOCCO[C@H]1CC[C@@]2(C)C(=CC[C@H]3[C@@H]4CC[C@H]([C@H](C)CCCC(C)C)[C@@]4(C)CC[C@@H]32)C1 (stereo partly shown) [E0115],6.41,68.8,162.5,0.098,–,–,–,–,–,–,–,–,–
CCCCC/C=C\C/C=C\CCCCCCCCOCC(CN1CCC(C)(C)CC1)OCCOCCO[C@H]1CC[C@@]2(C)C(=CCC3C2CC[C@@]2(C)C3CC[C@@H]2[C@H](C)CCCC(C)C)C1 (stereo partly shown) [E0171],8.5,–,–,–,54.1,40.8,90,0.18,–,–,–,–,–
"CCCCC/C=C\C/C=C\CCCCCCCCOCC(CN(C)C)OCCOCCO[C@H]1CC[C@@]2(C)C(=CC[C@H]3[C@@H]4CC[C@H]([C@H](C)CCCC(C)C)[C@@]4(C)CC[C@@H]32)C1 (stereo partly shown) [E0172, reference compound]",6.7,–,–,–,40.8,–,129,0.184,8.5,21,170,0.181,–
"CCCCC/C=C\C/C=C\CCCCCCCCOCC(CN(C)C)OCCCCO[C@H]1CC[C@@]2(C)C(=CCC3C2CC[C@@]2(C)C3CC[C@@H]2[C@H](C)CCCC(C)C)C1 (stereo partly drawn) [E0173, 3-Dimethylamino-2-(Cholest-5-en-3-beta-oxybutan-4-oxy) -1-(cis,cis-9,12-octadecadienoxy)propane, reference compound]",6.73,–,–,–,98.5,98.5,76,0.16,–,90.9,98,0.17,87.4
"CCCCC/C=C\C/C=C\CCCCCCCCCCC(CN(C)C)OC(=O)CCC(=O)O[C@H]1CC[C@@]2(C)C(=CCC3C2CC[C@@]2(C)C3CC[C@@H]2[C@H](C)CCCC(C)C)C1 (stereo partly shown) [E0174, reference compound]",5.15,–,–,–,3.5,–,90,0.21,–,63.2,117,0.23,–
